# Source: PubChem BioAssay (NCI)
#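 In this assay, cells in 96-well plates receive the compound at five concentrations for 48 hours. Endpoints are linearly interpolated between the surrounding concentrations. Abbreviation: GI50, concentration required for 50% inhibition of growth. At the TGI there is no net growth.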
# Experiments:
# Experiment in all cases: NCI anticancer screen, dose series, 48 h
# HS 578T breast = tested on: HS 578T breast
# NCI-H226 lung = tested on: NCI-H226 lung
# T-47D breast = tested on: T-47D breast
# HT29 colon = tested on: HT29 colon
# SNB-75 CNS = tested on: SNB-75 CNS
# CAKI-1 renal = tested on: CAKI-1 renal
# HCC-2998 colon = tested on: HCC-2998 colon
# LOX IMVI melanoma = tested on: LOX IMVI melanoma
# PC-3 prostate = tested on: PC-3 prostate
# UO-31 renal = tested on: UO-31 renal
# MALME-3M melanoma = tested on: MALME-3M melanoma
# SF-295 CNS = tested on: SF-295 CNS
# HCT-15 colon = tested on: HCT-15 colon
# MCF7 breast = tested on: MCF7 breast
# SK-OV-3 ovarian = tested on: SK-OV-3 ovarian
# U251 CNS = tested on: U251 CNS
# K-562 leukemia = tested on: K-562 leukemia
# HOP-92 NSCLC = tested on: HOP-92 NSCLC
# SK-MEL-5 melanoma = tested on: SK-MEL-5 melanoma
# SNB-19 CNS = tested on: SNB-19 CNS
# TK-10 renal = tested on: TK-10 renal
# IGROV1 ovarian = tested on: IGROV1 ovarian
# EKVX NSCLC = tested on: EKVX NSCLC
# NCI/ADR-RES ovarian = tested on: NCI/ADR-RES ovarian
# DU-145 prostate = tested on: DU-145 prostate
# OVCAR-5 ovarian = tested on: OVCAR-5 ovarian
# RXF 393 renal = tested on: RXF 393 renal
# SN12C renal = tested on: SN12C renal
# OVCAR-4 ovarian = tested on: OVCAR-4 ovarian
# SF-539 CNS = tested on: SF-539 CNS
# SK-MEL-2 melanoma = tested on: SK-MEL-2 melanoma
# ACHN renal = tested on: ACHN renal
# NCI-H460 lung = tested on: NCI-H460 lung
# HOP-62 NSCLC = tested on: HOP-62 NSCLC
# NCI-H522 lung = tested on: NCI-H522 lung
# M14 melanoma = tested on: M14 melanoma
# NCI-H23 lung = tested on: NCI-H23 lung
# MOLT-4 leukemia = tested on: MOLT-4 leukemia
# BT-549 breast = tested on: BT-549 breast
# OVCAR-3 ovarian = tested on: OVCAR-3 ovarian
# COLO 205 colon = tested on: COLO 205 colon
# A549 NSCLC = tested on: A549 NSCLC
# HCT-116 colon = tested on: HCT-116 colon
# MDA-MB-231 breast = tested on: MDA-MB-231 breast
# UACC-62 melanoma = tested on: UACC-62 melanoma
# SW-620 colon = tested on: SW-620 colon
# A498 renal = tested on: A498 renal
# OVCAR-8 ovarian = tested on: OVCAR-8 ovarian
# HL-60(TB) leukemia = tested on: HL-60(TB) leukemia
# 786-0 renal = tested on: 786-0 renal
# KM12 colon = tested on: KM12 colon
# RPMI-8226 leukemia = tested on: RPMI-8226 leukemia
# UACC-257 melanoma = tested on: UACC-257 melanoma
# SK-MEL-28 melanoma = tested on: SK-MEL-28 melanoma
# SF-268 CNS = tested on: SF-268 CNS
# CCRF-CEM leukemia = tested on: CCRF-CEM leukemia
# MDA-MB-435 = tested on: MDA-MB-435
smiles,measurement,setting,value
COc1ccc(C2NN=C3c4ccccc4CCC32)cc1 (centres undefined),GI50,HS 578T breast,15 µM
same,TGI,HS 578T breast,> 100 µM
same,GI50,NCI-H226 lung,> 100 µM
same,TGI,NCI-H226 lung,> 100 µM
same,GI50,T-47D breast,6.12 µM
same,TGI,T-47D breast,47.3 µM
same,GI50,HT29 colon,2.26 µM
same,TGI,HT29 colon,12.5 µM
same,GI50,SNB-75 CNS,0.284 µM
same,TGI,SNB-75 CNS,5.58 µM
same,GI50,CAKI-1 renal,9.38 µM
same,TGI,CAKI-1 renal,21.4 µM
same,GI50,HCC-2998 colon,12.4 µM
same,TGI,HCC-2998 colon,> 100 µM
same,GI50,LOX IMVI melanoma,8.25 µM
same,TGI,LOX IMVI melanoma,33.5 µM
same,GI50,PC-3 prostate,15.8 µM
same,TGI,PC-3 prostate,> 100 µM
same,GI50,UO-31 renal,24.1 µM
same,TGI,UO-31 renal,> 100 µM
same,GI50,MALME-3M melanoma,5.22 µM
same,TGI,MALME-3M melanoma,38.4 µM
same,GI50,SF-295 CNS,2.48 µM
same,TGI,SF-295 CNS,13.2 µM
same,GI50,HCT-15 colon,3.7 µM
same,TGI,HCT-15 colon,> 100 µM
same,GI50,MCF7 breast,2.56 µM
same,TGI,MCF7 breast,11.5 µM
same,GI50,SK-OV-3 ovarian,20.4 µM
same,TGI,SK-OV-3 ovarian,> 100 µM
same,GI50,U251 CNS,5.92 µM
same,TGI,U251 CNS,> 100 µM
same,GI50,K-562 leukemia,2.87 µM
same,TGI,K-562 leukemia,> 100 µM
same,GI50,HOP-92 NSCLC,19.4 µM
same,TGI,HOP-92 NSCLC,> 100 µM
same,GI50,SK-MEL-5 melanoma,3.62 µM
same,TGI,SK-MEL-5 melanoma,17.1 µM
same,GI50,SNB-19 CNS,14.5 µM
same,TGI,SNB-19 CNS,> 100 µM
same,GI50,TK-10 renal,16.9 µM
same,TGI,TK-10 renal,71.8 µM
same,GI50,IGROV1 ovarian,2.7 µM
same,TGI,IGROV1 ovarian,21.4 µM
same,GI50,EKVX NSCLC,1.4 µM
same,TGI,EKVX NSCLC,29.3 µM
same,GI50,NCI/ADR-RES ovarian,3.99 µM
same,TGI,NCI/ADR-RES ovarian,38.3 µM
same,GI50,DU-145 prostate,19.2 µM
same,TGI,DU-145 prostate,72.6 µM
same,GI50,OVCAR-5 ovarian,18.4 µM
same,TGI,OVCAR-5 ovarian,> 100 µM
same,GI50,RXF 393 renal,23.1 µM
same,TGI,RXF 393 renal,> 100 µM
same,GI50,SN12C renal,15.4 µM
same,TGI,SN12C renal,79.5 µM
same,GI50,OVCAR-4 ovarian,3.31 µM
same,TGI,OVCAR-4 ovarian,24.6 µM
same,GI50,SF-539 CNS,6.73 µM
same,TGI,SF-539 CNS,28.8 µM
same,GI50,SK-MEL-2 melanoma,28.5 µM
same,TGI,SK-MEL-2 melanoma,> 100 µM
same,GI50,ACHN renal,24.5 µM
same,TGI,ACHN renal,> 100 µM
same,GI50,NCI-H460 lung,4.86 µM
same,TGI,NCI-H460 lung,71.3 µM
same,GI50,HOP-62 NSCLC,95.3 µM
same,TGI,HOP-62 NSCLC,> 100 µM
same,GI50,NCI-H522 lung,3.21 µM
same,TGI,NCI-H522 lung,17.7 µM
same,GI50,M14 melanoma,6.23 µM
same,TGI,M14 melanoma,> 100 µM
same,GI50,NCI-H23 lung,12.6 µM
same,TGI,NCI-H23 lung,93.3 µM
same,GI50,MOLT-4 leukemia,4.04 µM
same,TGI,MOLT-4 leukemia,> 100 µM
same,GI50,BT-549 breast,5.29 µM
same,TGI,BT-549 breast,95.4 µM
same,GI50,OVCAR-3 ovarian,3.38 µM
same,TGI,OVCAR-3 ovarian,14.9 µM
same,GI50,COLO 205 colon,7.8 µM
same,TGI,COLO 205 colon,22.5 µM
same,GI50,A549 NSCLC,19.7 µM
same,TGI,A549 NSCLC,76.6 µM
same,GI50,HCT-116 colon,6.85 µM
same,TGI,HCT-116 colon,30.2 µM
same,GI50,MDA-MB-231 breast,17.8 µM
same,TGI,MDA-MB-231 breast,> 100 µM
same,GI50,UACC-62 melanoma,8.34 µM
same,TGI,UACC-62 melanoma,> 100 µM
same,GI50,SW-620 colon,9.19 µM
same,TGI,SW-620 colon,> 100 µM
same,GI50,A498 renal,19.4 µM
same,TGI,A498 renal,65 µM
same,GI50,OVCAR-8 ovarian,22.1 µM
same,TGI,OVCAR-8 ovarian,> 100 µM
same,GI50,HL-60(TB) leukemia,1.92 µM
same,TGI,HL-60(TB) leukemia,5.27 µM
same,GI50,786-0 renal,53.1 µM
same,TGI,786-0 renal,> 100 µM
same,GI50,KM12 colon,3.99 µM
same,TGI,KM12 colon,> 100 µM
same,GI50,RPMI-8226 leukemia,5.36 µM
same,TGI,RPMI-8226 leukemia,85.4 µM
same,GI50,UACC-257 melanoma,19.4 µM
same,TGI,UACC-257 melanoma,79.4 µM
same,GI50,SK-MEL-28 melanoma,8.26 µM
same,TGI,SK-MEL-28 melanoma,76.1 µM
same,GI50,SF-268 CNS,15.7 µM
same,TGI,SF-268 CNS,> 100 µM
same,GI50,CCRF-CEM leukemia,4.64 µM
same,TGI,CCRF-CEM leukemia,> 100 µM
same,GI50,MDA-MB-435,1.57 µM
same,TGI,MDA-MB-435,3.62 µM
